From BigSolDB 2.1

CC1(C)[C@@H](O)CC[C@]2(C)[C@H]3C(=O)C=C4[C@@H]5C[C@@](C)(C(=O)O)CC[C@]5(C)CC[C@@]4(C)[C@]3(C)CC[C@@H]12
solubility (mole fraction)
Conditions | 278.15 K | 283.15 K | 288.15 K | 293.15 K | 298.15 K | 303.15 K | 308.15 K | 313.15 K | 318.15 K | 323.15 K
in 1,4-dioxane | – | – | 0.0277 | 0.0286 | 0.0298 | 0.031 | 0.0323 | 0.0335 | 0.0348 | 0.0366
in DMF | 0.0449 | 0.0478 | 0.051 | 0.0545 | 0.058 | 0.0615 | 0.0654 | 0.0692 | 0.0733 | 0.0777
in ethanol | 0.0109 | 0.0115 | 0.0121 | 0.0128 | 0.0134 | 0.0141 | 0.0147 | 0.0155 | 0.0163 | 0.0172
in isopropanol | 0.00911 | 0.00991 | 0.0108 | 0.0116 | 0.0124 | 0.0133 | 0.0142 | 0.0151 | 0.016 | 0.017
in water | 8.02e-08 | 9.91e-08 | 1.22e-07 | 1.5e-07 | 1.82e-07 | 2.2e-07 | 2.61e-07 | 3.17e-07 | 3.76e-07 | 4.49e-07
